Test results published in ChEMBL document CHEMBL3885881, “DrugMatrix”.

Species on record: Rattus norvegicus
Experiment: DrugMatrix - Regimen: Daily Repeat
Assay type: toxicity, organism-based, Sprague-Dawley
Design: regimen Daily Repeat, gender Male, age 6-8 weeks
Details: in vivo, po, […], route oral GAVAGE, vehicle 100 % WATER; for ALANINE AMINOTRANSFERASE / ALBUMIN / ALKALINE PHOSPHATASE / ASPARTATE AMINOTRANSFERASE / BLOOD UREA NITROGEN / CARBON DIOXIDE / CHLORIDE / CHOLESTEROL / CREATINE PHOSPHOKINASE / CREATININE / GLUCOSE / LACTATE DEHYDROGENASE / LIPASE / PHOSPHORUS / POTASSIUM / SODIUM / TOTAL BILIRUBIN / TOTAL PROTEIN / URIC ACID: tissue Plasma; for ABSOLUTE BASOPHIL / ABSOLUTE EOSINOPHIL / ABSOLUTE LYMPHOCYTE / ABSOLUTE MONOCYTE / ABSOLUTE SEGMENTED NEUTROPHIL / BASOPHIL / EOSINOPHIL / ERYTHROCYTE COUNT / HEMATOCRIT / HEMOGLOBIN / LEUKOCYTE COUNT / LYMPHOCYTE / MEAN CORPUSCULAR HEMOGLOBIN / MEAN CORPUSCULAR HEMOGLOBIN CONCENTRATION / MEAN CORPUSCULAR VOLUME / MONOCYTE / NEUTROPHIL / NUCLEATED RED BLOOD CELLS / PLATELET COUNT: tissue Blood
[1] = 72 h, dose 0.025 mg/Kg, dose level Low, time 3 day
[2] = 72 h, dose 0.25 mg/Kg, dose level High, time 3 day
[3] = 120 h, dose 0.025 mg/Kg, dose level Low, time 5 day
[4] = 120 h, dose 0.25 mg/Kg, dose level High, time 5 day

C[C@@H]1C[C@@H]([C@H](O)CC2CC(=O)NC(=O)C2)C(=O)[C@@H](C)C1 [CYCLOHEXIMIDE]
ALANINE AMINOTRANSFERASE [1]: 59.67 u/L | ALBUMIN [1]: 4.1 G/DL | ALKALINE PHOSPHATASE [1]: 369.67 u/L | ASPARTATE AMINOTRANSFERASE [1]: 107.33 u/L | BLOOD UREA NITROGEN [1]: 15.67 mg/dL | CARBON DIOXIDE [1]: 31 mmol/L | CHLORIDE [1]: 102 MEQ/L | CHOLESTEROL [1]: 69 mg/dL | CREATINE PHOSPHOKINASE [1]: 1055 u/L | CREATININE [1]: 0.22 mg/dL | GLUCOSE [1]: 164 mg/dL | LACTATE DEHYDROGENASE [1]: 240.33 u/L | LIPASE [1]: 9 u/L | PHOSPHORUS [1]: 12.27 mg/dL | POTASSIUM [1]: 6.52 MEQ/L | SODIUM [1]: 142.17 MEQ/L | TOTAL BILIRUBIN [1]: 0.23 mg/dL | TOTAL PROTEIN [1]: 5.63 G/DL | URIC ACID [1]: 1.8 mg/dL | ALANINE AMINOTRANSFERASE [2]: 45 u/L | ALBUMIN [2]: 3.43 G/DL | ALKALINE PHOSPHATASE [2]: 376.67 u/L | ASPARTATE AMINOTRANSFERASE [2]: 77 u/L | BLOOD UREA NITROGEN [2]: 14.33 mg/dL | CARBON DIOXIDE [2]: 34.33 mmol/L | CHLORIDE [2]: 101.33 MEQ/L | CHOLESTEROL [2]: 48.67 mg/dL | CREATINE PHOSPHOKINASE [2]: 345.33 u/L | CREATININE [2]: 0.17 mg/dL | GLUCOSE [2]: 154.33 mg/dL | LACTATE DEHYDROGENASE [2]: 99 u/L | LIPASE [2]: 8 u/L | PHOSPHORUS [2]: 12.1 mg/dL | POTASSIUM [2]: 7.04 MEQ/L | SODIUM [2]: 141.27 MEQ/L | TOTAL BILIRUBIN [2]: 0.23 mg/dL | TOTAL PROTEIN [2]: 4.67 G/DL | URIC ACID [2]: 1.33 mg/dL | ABSOLUTE BASOPHIL [3]: 0 CELLS/uL | ABSOLUTE EOSINOPHIL [3]: 0 CELLS/uL | ABSOLUTE LYMPHOCYTE [3]: 7936.67 CELLS/uL | ABSOLUTE MONOCYTE [3]: 68.67 CELLS/uL | ABSOLUTE SEGMENTED NEUTROPHIL [3]: 628 CELLS/uL | BASOPHIL [3]: 0% | EOSINOPHIL [3]: 0% | ERYTHROCYTE COUNT [3]: 5.73 x10E6/uL | HEMATOCRIT [3]: 34.33% | HEMOGLOBIN [3]: 13.1 G/DL | LEUKOCYTE COUNT [3]: 8.63 x10E3/uL | LYMPHOCYTE [3]: 91.67% | MEAN CORPUSCULAR HEMOGLOBIN [3]: 22.9 pg | MEAN CORPUSCULAR HEMOGLOBIN CONCENTRATION [3]: 38.13 G/DL | MEAN CORPUSCULAR VOLUME [3]: 60.1 fL | MONOCYTE [3]: 1% | NEUTROPHIL [3]: 7.33% | NUCLEATED RED BLOOD CELLS [3]: 0 /100WBC | PLATELET COUNT [3]: 1317.33 x10E3/uL | ABSOLUTE BASOPHIL [4]: 0 CELLS/uL | ABSOLUTE EOSINOPHIL [4]: 26.67 CELLS/uL | ABSOLUTE LYMPHOCYTE [4]: 7410 CELLS/uL | ABSOLUTE MONOCYTE [4]: 139.67 CELLS/uL | ABSOLUTE SEGMENTED NEUTROPHIL [4]: 1057 CELLS/uL | BASOPHIL [4]: 0% | EOSINOPHIL [4]: 0.33% | ERYTHROCYTE COUNT [4]: 5.35 x10E6/uL | HEMATOCRIT [4]: 32.87% | HEMOGLOBIN [4]: 12.77 G/DL | LEUKOCYTE COUNT [4]: 8.63 x10E3/uL | LYMPHOCYTE [4]: 85% | MEAN CORPUSCULAR HEMOGLOBIN [4]: 23.83 pg | MEAN CORPUSCULAR HEMOGLOBIN CONCENTRATION [4]: 38.8 G/DL | MEAN CORPUSCULAR VOLUME [4]: 61.47 fL | MONOCYTE [4]: 1.67% | NEUTROPHIL [4]: 13% | NUCLEATED RED BLOOD CELLS [4]: 0 /100WBC | PLATELET COUNT [4]: 1213 x10E3/uL | ALANINE AMINOTRANSFERASE [3]: 45.33 u/L | ALBUMIN [3]: 4.03 G/DL | ALKALINE PHOSPHATASE [3]: 343 u/L | ASPARTATE AMINOTRANSFERASE [3]: 78 u/L | BLOOD UREA NITROGEN [3]: 15.33 mg/dL | CARBON DIOXIDE [3]: 33.33 mmol/L | CHLORIDE [3]: 102.33 MEQ/L | CHOLESTEROL [3]: 68.67 mg/dL | CREATINE PHOSPHOKINASE [3]: 249.67 u/L | CREATININE [3]: 0.16 mg/dL | GLUCOSE [3]: 141 mg/dL | LACTATE DEHYDROGENASE [3]: 124.33 u/L | LIPASE [3]: 9 u/L | PHOSPHORUS [3]: 11.4 mg/dL | POTASSIUM [3]: 5.87 MEQ/L | SODIUM [3]: 146.43 MEQ/L | TOTAL BILIRUBIN [3]: 0.1 mg/dL | TOTAL PROTEIN [3]: 5.83 G/DL | URIC ACID [3]: 0.73 mg/dL | ALANINE AMINOTRANSFERASE [4]: 54.67 u/L | ALBUMIN [4]: 3.6 G/DL | ALKALINE PHOSPHATASE [4]: 291.33 u/L | ASPARTATE AMINOTRANSFERASE [4]: 78 u/L | BLOOD UREA NITROGEN [4]: 16 mg/dL | CARBON DIOXIDE [4]: 35.33 mmol/L | CHLORIDE [4]: 101.5 MEQ/L | CHOLESTEROL [4]: 65 mg/dL | CREATINE PHOSPHOKINASE [4]: 253.67 u/L | CREATININE [4]: 0.15 mg/dL | GLUCOSE [4]: 135 mg/dL | LACTATE DEHYDROGENASE [4]: 109 u/L | LIPASE [4]: 9 u/L | PHOSPHORUS [4]: 11.9 mg/dL | POTASSIUM [4]: 6.52 MEQ/L | SODIUM [4]: 143.55 MEQ/L | TOTAL BILIRUBIN [4]: 0.1 mg/dL | TOTAL PROTEIN [4]: 5.03 G/DL | URIC ACID [4]: 0.73 mg/dL
